Tests used:
Format in all cases: cell-based, mouse
PEMs [1] = assay: Cell signaling inhibitors on LPS/cytokine- or PMA-induced PEM phagocytic activation toward RBCs; details: PMA treatment
Protocol: FIGS. 5A-5H include data related to our experiments on the role of Syk in phagocytic activation. […] PEMs were treated with LPS and cytokines in the presence of various inhibitors. After washing, inhibitor-free macrophages were tested for phagocytosis toward RBCs. […] PEMs treated with LPS and activating cytokines, or together with IL-10, were tested for total Syk and phosphorylated Syk (Syk^pY, specific at Y519/520). FIG. 5D describes PMA-induced macrophages phagocytosis toward RBCs. WT and SIRPα^−/− PEMs were treated with PMA (37° C., 30 min) before testing phagocytosis toward RBCs. FIG. 5E is a schematic depiction of PKC-Syk-mediated macrophage phagocytic activation toward self. […] Left: Inhibition of Syk by piceatannol and R406 prevented PMA-induced phagocytic activation. […] Error bars are ±SEM. ***P<0.001 vs. the respective controls. […] LPS-treated WT PEMs were further briefly treated with pervanadate before testing for phagocytosis toward RBCs. Error bars are ±SEM. ***P<0.001 vs. the respective controls. […] Data presented in each panel represent at least three independent experiments with n≥4, if applicable.
(§1) Ex vivo macrophage phagocytosis: Mouse spleens were harvested and minced in cold HBSS followed by passing through nylon meshes. The spleen cells in suspensions were collected by centrifugation followed by washing. After lysis of RBC, splenocytes were plated in cell culture dishes in DMEM with 10% FBS and cultured for 2 h followed by removal of non-adherent cells. The adherent cells, ˜70% being macrophages as determined by anti-F4/80 staining, were tested for phagocytosis. For phagocytosis of RBC or other tissue cells, targeted cells were labeled with CFSE prior to addition into the macrophage-containing wells. Macrophages and target cells, at a ratio of 1:5-10 for RBC or 1:1-2 for other cells, were co-incubated for 30 min at 37° C. followed by gently washing. Macrophage phagocytosis of target cells was then analyzed by fluorescence microscopy and/or by FACS. […] Alternatively, the freshly isolated splenocytes in suspension were incubated with CFSE-labeled RBC and other phagocytic targets for 30 min at 37° C. Macrophage phagocytosis was then determined by FACS after labeling macrophages with anti-F4/80. To test phagocytosis of apoptotic cells, B16 cells were irradiated by UV for 150 seconds at 50 J/m^2 strength. Apoptosis was analyzed at 2, 4, 6, 8 and 18 h post UV irradiation by labeling of the cells with anti-phosphatidylserine (PS) antibody (data not shown) or FITC-conjugated annexin V (data not shown). Cells that were confirmed to be apoptotic were trypsinized, labeled with CFSE, and then co-incubated with macrophages for 30 min at 37° C. After gentle washing, phagocytosis was analyzed by fluorescence microscopy and/or FACS. To test phagocytosis of bacteria and the fungal product zymosan, AlexaFluor-conjugated E.coli strain […] (2 μl suspension, ˜2 μg) or zymosan bioparticles (1 μl suspension, ˜2 μg) (both from Invitrogen) were incubated with macrophages for 30 min followed by washing and analyses. Similar procedures were performed to test phagocytosis of macrophages from various sources. To obtain peritoneal macrophages, peritonea of mice were lavaged by sterile PBS followed by centrifugation to collect cells. Cells suspended in DMEM with 10% FBS were then plated in cell culture dishes and incubated for 2 h at 37° C. followed by removal of non-adherent cells. To produce bone marrow-derived macrophages, freshly isolated bone marrow cells were culture in macrophage colony-stimulating factor (MCSF, ˜10 ng/ml)-containing MEM with 10% FBS for five-six days and macrophage differentiation was confirmed by anti-F4/80 staining.

[2] = system: cell surface LRP1 and CRT on PEMs; assay: Macrophage cell surface CRT and LRP1 by FACS; details: after PMA treatment
Protocol: FIGS. 6A-6D include data related to our investigation of possible phagocytic receptors on macrophages for phagocytosing healthy self-cells. […] PEM (unstimulated) phagocytosis toward apoptotic B16 cells was tested in the presence of same antibodies and RAP as in A. Error bars are ±SEM. ***P<0.001 vs. phagocytosis in the presence of control IgG. […] PEMs, with or without (ctl.) treatment with LPS, IL-17, IL-6, or PMA, were labeled for cell surface LRP1 and CRT followed by FACS. Increased and decreased expressions were marked by arrows. […] Activated PEM phagocytosis toward RBCs was tested in the presence of antibodies against SR-A, Fc receptor Cd16/32 (10 μg/mL of each), inhibitors against SR-B (BLT1, 5 μM), dectin (laminarin, 100 μg/mL), complement (heparin, 40 U/mL), and antibody against Cd11b (10 μg/mL). Error bars are ±SEM. ***P<0.001 vs. the respective control without inhibition. Data presented in each panel represent at least three independent experiments with n≥4, if applicable.

[3] = system: splenic macrophages, PEMs and BMDMs; assay: Ex vivo macrophage phagocytosis toward RBCs and other self-cells after activation
Procedure, shortened: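 Mouse splenic or peritoneal macrophages (2 h adherent selection) or BMDMs (M-CSF ~10 ng/ml, 5-6 days) were co-incubated 30 min at 37 °C with CFSE-labelled RBCs (1:5-10) or other cells (1:1-2). Uptake was scored by fluorescence microscopy and/or FACS with anti-F4/80 or anti-CD11b macrophage labelling.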

SIRPα = SIRPα immunoprecipitation and WB detection of SIRPα ITIM phosphorylation and SHP-1 association; details: PMA treatment
Protocol: FIGS. 4A-4E include data related to our experiments on macrophage phagocytic plasticity. FIG. 4A is a panel of illustrative line graphs showing that IL-10 inhibits macrophage phagocytosis toward “self.” PEMs were treated with LPS and activating cytokines along with various concentrations of IL-10 before testing their ability to phagocytose RBCs. FIG. 4B illustrates the phagocytic plasticity of WT red pulp macrophages. […] Treatments of cultured macrophages with LPS and IL-17 re-elicited their phagocytosis toward RBCs. […] Error bars are ±SEM. ***P<0.001 vs. freshly isolated splenic macrophages. FIG. 4D includes microscopic images of RBC phagocytosis by LPS- and IL-17-treated splenic macrophages. […] WT PEMs treated with LPS or IL-17 were further treated with Cd47^+ RBCs or Cd47-AP (10 min, 37° C.) followed by cell lysis, SIRPα immunoprecipitation, and WB detection of SIRPα phosphorylation (SIRPα^pY) and SHP-1 association. Data presented in each panel represent at least three independent experiments with n≥4, if applicable.
FIGS. 5A-5H include data related to our experiments on the role of Syk in phagocytic activation. […] PEMs were treated with LPS and cytokines in the presence of various inhibitors. After washing, inhibitor-free macrophages were tested for phagocytosis toward RBCs. […] PEMs treated with LPS and activating cytokines, or together with IL-10, were tested for total Syk and phosphorylated Syk (Syk^pY, specific at Y519/520). FIG. 5D describes PMA-induced macrophages phagocytosis toward RBCs. WT and SIRPα^−/− PEMs were treated with PMA (37° C., 30 min) before testing phagocytosis toward RBCs. FIG. 5E is a schematic depiction of PKC-Syk-mediated macrophage phagocytic activation toward self. […] Left: Inhibition of Syk by piceatannol and R406 prevented PMA-induced phagocytic activation. […] Error bars are ±SEM. ***P<0.001 vs. the respective controls. […] LPS-treated WT PEMs were further briefly treated with pervanadate before testing for phagocytosis toward RBCs. Error bars are ±SEM. ***P<0.001 vs. the respective controls. […]

PEMs [4] = assay: PEM (unstimulated) phagocytosis toward apoptotic B16 cells; details: same antibodies and RAP as for RBCs
Protocol: (§2) FIGS. 6A-6D include data related to our investigation of possible phagocytic receptors on macrophages for phagocytosing healthy self-cells. […] PEMs, with or without (ctl.) treatment with LPS, IL-17, IL-6, or PMA, were labeled for cell surface LRP1 and CRT followed by FACS. […] Activated PEM phagocytosis toward RBCs was tested in the presence of antibodies against SR-A, Fc receptor Cd16/32 (10 μg/mL of each), inhibitors against SR-B (BLT1, 5 μM), dectin (laminarin, 100 μg/mL), complement (heparin, 40 U/mL), and antibody against Cd11b (10 μg/mL). […] Data presented in each panel represent at least three independent experiments with n≥4, if applicable.
Ex vivo macrophage phagocytosis: Mouse spleens were harvested and minced in cold HBSS followed by passing through nylon meshes. […] The adherent cells, ˜70% being macrophages as determined by anti-F4/80 staining, were tested for phagocytosis. […] Macrophage phagocytosis of target cells was then analyzed by fluorescence microscopy and/or by FACS. […] Macrophage phagocytosis was then determined by FACS after labeling macrophages with anti-F4/80. […] Apoptosis was analyzed at 2, 4, 6, 8 and 18 h post UV irradiation by labeling of the cells with anti-phosphatidylserine (PS) antibody (data not shown) or FITC-conjugated annexin V (data not shown). […] After gentle washing, phagocytosis was analyzed by fluorescence microscopy and/or FACS. […]

PEMs [5] = assay: Activated PEM phagocytosis toward RBCs in the presence of antibodies/inhibitors against phagocytic receptors; details: anti-CRT 10 μg/mL each; anti-LRP1 20 μg/mL; RAP 20 μg/mL
Protocol: as §2
as §1, with “To obtain peritoneal macrophages, peritonea of mice were lavaged by sterile PBS followed by centrifugation to collect cells. Cells suspended in DMEM with 10% FBS were then plated in cell culture dishes and incubated for 2 h at 37° C. followed by removal of non-adherent cells. To produce bone marrow-derived macrophages, freshly isolated bone marrow cells were culture in macrophage colony-stimulating factor (MCSF, ˜10 ng/ml)-containing MEM with 10% FBS for five-six days and macrophage differentiation was confirmed by anti-F4/80 staining.” left out

Compound	rescue of Syk inhibition-repressed PEM phagocytic activation by LPS (PEMs [1])	reduction of CRT and LRP1 expression on PEMs [2] [%]	time to elicitation of phagocytosis [3] [min]	phagocytic target discrimination ([3]; PMA-treated WT PEMs)	PEM phagocytosis toward RBCs ([3]; low nanomolar concentrations, 37° C., 30 min)	SIRPα expression, SIRPα ITIM phosphorylation and SHP-1 association (SIRPα)	phagocytosis toward apoptotic cells (PEMs [4])	LPS/cytokine-induced PEM phagocytosis toward RBCs (PEMs [5])
CCCCCCCCCCCCCC(=O)O[C@@H]1[C@@H](C)[C@@]2(O)[C@@H](C=C(CO)C[C@]3(O)C(=O)C(C)=C[C@@H]23)[C@@H]2C(C)(C)[C@]12OC(C)=O [PMA, phorbol 12-myristate 13-acetate]	failed to rescue	~50	< 30	aggressively phagocytosed both CD47^− and CD47^+ RBCs	instantly initiated PEM to phagocytose RBCs	neither reduced SIRPα expression nor affected SIRPα ITIM phosphorylation and SHP-1 association		
RAP: LRP1 receptor-associated protein, which inhibits CRT-LRP1 binding							significantly inhibited	failed to inhibit
